Measurements reported in PubChem BioAssay (NCI).
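In this assay, cells in 96-well plates receive the compound at five concentrations for 48 hours. Endpoints are linearly interpolated between the surrounding concentrations. Abbreviation: GI50, concentration required for 50% inhibition of growth. Definition used: TGI = concentration required for complete inhibition of growth.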

Experiments:
Assay in all cases: inhibition of tumour cell growth, NCI panel, 48 h
786-0 renal = tested on: 786-0 renal
A498 renal = tested on: A498 renal
A549 NSCLC = tested on: A549 NSCLC
ACHN renal = tested on: ACHN renal
BT-549 breast = tested on: BT-549 breast
CCRF-CEM leukemia = tested on: CCRF-CEM leukemia
COLO 205 colon = tested on: COLO 205 colon
DU-145 prostate = tested on: DU-145 prostate
EKVX NSCLC = tested on: EKVX NSCLC
HCC-2998 colon = tested on: HCC-2998 colon
HCT-116 colon = tested on: HCT-116 colon
HCT-15 colon = tested on: HCT-15 colon
HL-60(TB) leukemia = tested on: HL-60(TB) leukemia
HOP-62 NSCLC = tested on: HOP-62 NSCLC
HOP-92 NSCLC = tested on: HOP-92 NSCLC
HS 578T breast = tested on: HS 578T breast
HT29 colon = tested on: HT29 colon
IGROV1 ovarian = tested on: IGROV1 ovarian
K-562 leukemia = tested on: K-562 leukemia
KM12 colon = tested on: KM12 colon
LOX IMVI melanoma = tested on: LOX IMVI melanoma
M14 melanoma = tested on: M14 melanoma
MALME-3M melanoma = tested on: MALME-3M melanoma
MCF7 breast = tested on: MCF7 breast
MDA-MB-231 breast = tested on: MDA-MB-231 breast
MDA-MB-435 = tested on: MDA-MB-435
MOLT-4 leukemia = tested on: MOLT-4 leukemia
NCI-H226 lung = tested on: NCI-H226 lung
NCI-H23 lung = tested on: NCI-H23 lung
NCI-H460 lung = tested on: NCI-H460 lung
NCI-H522 lung = tested on: NCI-H522 lung
NCI/ADR-RES ovarian = tested on: NCI/ADR-RES ovarian
OVCAR-3 ovarian = tested on: OVCAR-3 ovarian
OVCAR-4 ovarian = tested on: OVCAR-4 ovarian
OVCAR-5 ovarian = tested on: OVCAR-5 ovarian
OVCAR-8 ovarian = tested on: OVCAR-8 ovarian
PC-3 prostate = tested on: PC-3 prostate
RPMI-8226 leukemia = tested on: RPMI-8226 leukemia
RXF 393 renal = tested on: RXF 393 renal
SF-268 CNS = tested on: SF-268 CNS
SF-295 CNS = tested on: SF-295 CNS
SF-539 CNS = tested on: SF-539 CNS
SK-MEL-2 melanoma = tested on: SK-MEL-2 melanoma
SK-MEL-28 melanoma = tested on: SK-MEL-28 melanoma
SK-MEL-5 melanoma = tested on: SK-MEL-5 melanoma
SK-OV-3 ovarian = tested on: SK-OV-3 ovarian
SN12C renal = tested on: SN12C renal
SNB-19 CNS = tested on: SNB-19 CNS
SNB-75 CNS = tested on: SNB-75 CNS
SR leukemia = tested on: SR leukemia
SW-620 colon = tested on: SW-620 colon
T-47D breast = tested on: T-47D breast
TK-10 renal = tested on: TK-10 renal
U251 CNS = tested on: U251 CNS
UACC-257 melanoma = tested on: UACC-257 melanoma
UACC-62 melanoma = tested on: UACC-62 melanoma
UO-31 renal = tested on: UO-31 renal

In the case of `O=C(N/N=C/c1c(Cl)cccc1Cl)c1cccnc1Nc1cccc(C(F)(F)F)c1`, the GI50 (786-0 renal) is reported as 3.87 µM, the TGI (786-0 renal) is reported as 27.9 µM and the GI50 (A498 renal) is reported as 3.13 µM. For the same compound, the TGI (A498 renal) was 32.8 µM, the GI50 (A549 NSCLC) was 4.69 µM and the TGI (A549 NSCLC) was greater than 100 µM. The GI50 (ACHN renal) was 3.04 µM, the TGI (ACHN renal) was 20.8 µM and the GI50 (BT-549 breast) was 3.28 µM. The TGI (BT-549 breast) was 55.5 µM, the GI50 (CCRF-CEM leukemia) was 0.323 µM and the TGI (CCRF-CEM leukemia) was 10.8 µM. It also gave a GI50 (COLO 205 colon) of 2.9 µM, a TGI (COLO 205 colon) of 37.9 µM and a GI50 (DU-145 prostate) of 5.35 µM. It also gave a TGI (DU-145 prostate) greater than 100 µM, a GI50 (EKVX NSCLC) of 2.25 µM and a TGI (EKVX NSCLC) of 27.4 µM. The GI50 (HCC-2998 colon) was 3.86 µM, the TGI (HCC-2998 colon) was greater than 100 µM and the GI50 (HCT-116 colon) was 1.53 µM. The TGI (HCT-116 colon) was 18.1 µM, the GI50 (HCT-15 colon) was 0.668 µM and the TGI (HCT-15 colon) was greater than 100 µM. It also gave a GI50 (HL-60(TB) leukemia) of 3.15 µM, a TGI (HL-60(TB) leukemia) of 34.1 µM and a GI50 (HOP-62 NSCLC) of 3.97 µM. The TGI (HOP-62 NSCLC) was 20.8 µM, the GI50 (HOP-92 NSCLC) was 4.01 µM and the TGI (HOP-92 NSCLC) was 25.5 µM. It also gave a GI50 (HS 578T breast) of 3.59 µM, a TGI (HS 578T breast) of 26.2 µM and a GI50 (HT29 colon) of 4.7 µM. It also gave a TGI (HT29 colon) greater than 100 µM, a GI50 (IGROV1 ovarian) of 2.41 µM and a TGI (IGROV1 ovarian) of 54.9 µM. The GI50 (K-562 leukemia) was 3.57 µM, the TGI (K-562 leukemia) was greater than 100 µM and the GI50 (KM12 colon) was 3.24 µM. For the same compound, the TGI (KM12 colon) was 57.3 µM, the GI50 (LOX IMVI melanoma) was 1.83 µM and the TGI (LOX IMVI melanoma) was 19 µM. For the same compound, the GI50 (M14 melanoma) was 2.72 µM, the TGI (M14 melanoma) was 17.1 µM and the GI50 (MALME-3M melanoma) was 2.95 µM. It also gave a TGI (MALME-3M melanoma) of 10.8 µM, a GI50 (MCF7 breast) of 3.92 µM and a TGI (MCF7 breast) greater than 100 µM. For the same compound, the GI50 (MDA-MB-231 breast) was 5.16 µM, the TGI (MDA-MB-231 breast) was 72 µM and the GI50 (MDA-MB-435) was 3.8 µM. For the same compound, the TGI (MDA-MB-435) was greater than 100 µM, the GI50 (MOLT-4 leukemia) was 0.942 µM and the TGI (MOLT-4 leukemia) was greater than 100 µM. The GI50 (NCI-H226 lung) was 2.44 µM, the TGI (NCI-H226 lung) was 21.9 µM and the GI50 (NCI-H23 lung) was 6.35 µM. For the same compound, the TGI (NCI-H23 lung) was greater than 100 µM, the GI50 (NCI-H460 lung) was 2.04 µM and the TGI (NCI-H460 lung) was 35.3 µM. The GI50 (NCI-H522 lung) was 2.55 µM, the TGI (NCI-H522 lung) was 15 µM and the GI50 (NCI/ADR-RES ovarian) was 1.7 µM. The TGI (NCI/ADR-RES ovarian) was 44.6 µM, the GI50 (OVCAR-3 ovarian) was 2.72 µM and the TGI (OVCAR-3 ovarian) was 27.5 µM. It also gave a GI50 (OVCAR-4 ovarian) of 0.941 µM, a TGI (OVCAR-4 ovarian) of 48.3 µM and a GI50 (OVCAR-5 ovarian) of 4.43 µM. It also gave a TGI (OVCAR-5 ovarian) of 47 µM, a GI50 (OVCAR-8 ovarian) of 3.49 µM and a TGI (OVCAR-8 ovarian) greater than 100 µM. The GI50 (PC-3 prostate) was 2.79 µM, the TGI (PC-3 prostate) was greater than 100 µM and the GI50 (RPMI-8226 leukemia) was 0.717 µM. For the same compound, the TGI (RPMI-8226 leukemia) was 4.88 µM, the GI50 (RXF 393 renal) was 6.53 µM and the TGI (RXF 393 renal) was 38.6 µM. It also gave a GI50 (SF-268 CNS) of 2.18 µM, a TGI (SF-268 CNS) greater than 100 µM and a GI50 (SF-295 CNS) of 1.78 µM. For the same compound, the TGI (SF-295 CNS) was 14 µM, the GI50 (SF-539 CNS) was 4.28 µM and the TGI (SF-539 CNS) was 19.5 µM. For the same compound, the GI50 (SK-MEL-2 melanoma) was 11.1 µM, the TGI (SK-MEL-2 melanoma) was 56.1 µM and the GI50 (SK-MEL-28 melanoma) was 3.03 µM. It also gave a TGI (SK-MEL-28 melanoma) of 40.4 µM, a GI50 (SK-MEL-5 melanoma) of 2.34 µM and a TGI (SK-MEL-5 melanoma) of 6.52 µM. The GI50 (SK-OV-3 ovarian) was 3.77 µM, the TGI (SK-OV-3 ovarian) was 30.2 µM and the GI50 (SN12C renal) was 2.58 µM. It also gave a TGI (SN12C renal) of 98.9 µM, a GI50 (SNB-19 CNS) of 4.62 µM and a TGI (SNB-19 CNS) greater than 100 µM. For the same compound, the GI50 (SNB-75 CNS) was 3.9 µM, the TGI (SNB-75 CNS) was 24.8 µM and the GI50 (SR leukemia) was 2.57 µM. It also gave a TGI (SR leukemia) of 28.5 µM, a GI50 (SW-620 colon) of 1.66 µM and a TGI (SW-620 colon) greater than 100 µM. For the same compound, the GI50 (T-47D breast) was 2.65 µM, the TGI (T-47D breast) was 71 µM and the GI50 (TK-10 renal) was 4.4 µM. It also gave a TGI (TK-10 renal) of 79.2 µM, a GI50 (U251 CNS) of 1.47 µM and a TGI (U251 CNS) of 11.6 µM. It also gave a GI50 (UACC-257 melanoma) of 4.31 µM, a TGI (UACC-257 melanoma) greater than 100 µM and a GI50 (UACC-62 melanoma) of 2.46 µM. The TGI (UACC-62 melanoma) was 9.64 µM, the GI50 (UO-31 renal) was 3 µM and the TGI (UO-31 renal) was greater than 100 µM.
